Literature values in patent publication US11395812B2, “Docetaxel albumin nanoparticle pharmaceutical composition, preparation method therefor and use thereof” (SICHUAN KELUN PHARMACEUTICAL RESEARCH INSTITUTE CO. LTD., priority 2015, dated 2022).

Target: T1, recombinant human cytochrome P4501B1 (hCYP1B1) (Homo sapiens, UniProt Q16678)
T1 sequence (Q16678 1-543): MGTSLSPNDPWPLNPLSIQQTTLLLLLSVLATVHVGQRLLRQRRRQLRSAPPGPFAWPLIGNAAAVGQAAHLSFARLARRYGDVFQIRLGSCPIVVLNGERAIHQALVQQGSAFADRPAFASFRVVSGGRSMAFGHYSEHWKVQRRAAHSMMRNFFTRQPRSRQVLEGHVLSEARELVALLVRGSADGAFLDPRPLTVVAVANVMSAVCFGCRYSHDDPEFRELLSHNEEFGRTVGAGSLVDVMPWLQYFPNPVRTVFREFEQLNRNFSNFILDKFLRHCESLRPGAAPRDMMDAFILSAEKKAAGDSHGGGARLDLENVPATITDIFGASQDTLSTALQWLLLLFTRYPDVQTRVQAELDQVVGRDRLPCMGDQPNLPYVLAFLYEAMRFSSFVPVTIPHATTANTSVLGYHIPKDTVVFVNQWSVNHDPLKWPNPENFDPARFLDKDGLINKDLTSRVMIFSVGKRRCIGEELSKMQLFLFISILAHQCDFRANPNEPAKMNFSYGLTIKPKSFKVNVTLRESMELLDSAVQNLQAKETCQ
Conditions: in vitro test

- increase of the activity of hCYP1B1: more than 7 times
SMILES: CC(=O)O[C@@]12CO[C@@H]1C[C@@H](O)[C@@]1(C)C(=O)[C@H](O)C3=C(C)[C@@H](OC(=O)[C@H](O)[C@@H](NC(=O)OC(C)(C)C)c4ccccc4)C[C@@](O)([C@@H](OC(=O)c4ccccc4)[C@H]21)C3(C)C [7-epi-docetaxel]
